Reference: patent publication US5110935A, “New compounds which are active against the tissue forms of malaria and method of preparation” (Ire-Celltarg, S.A., priority 1988, dated 1992)
Several values for one entry are separate records, joined by “and”; a condition that tells them apart may be missing. Equal entries are not always repeated.

Legend:
[1] = Acute toxicity in mice after a single i.v. administration; format: in vivo; conditions: mouse, in vivo, iv, single i.v., mg PQ diphosphate equivalent/kg; for MTD: weight loss not exceeding 5% during 5 days, read-out: Maximum tolerated dose (MTD)
Protocol: (§1) The acute toxicity in terms of a single administered dose is determined on female Swiss OF1 mice weighing 22 to 25 g. A series of dilutions of each compound is injected intravenously into groups of 10 mice (0.1 ml per 10 g of weight).
(§2) The lethal dose for 50% of mice (LD50) is determined by linear regression of the logits of the percentage of surviving animals as a function of the logarithm of the dose injected (in mg PQ diphosphate equivalent/kg) (Logit Weighted Transformation, Berkson J., 1953; J. Am. Stat. Assoc. 48, 565-599).
(§3) ^a : The products are administered i.v. to groups of 10 female Swiss
(§4) ^b : Maximum tolerated dose (MTD), defined as the highest dose
(§5) The acute toxicity in terms of a single administered dose is determined under the same conditions and according the protocol of Example 3.

female Swiss OF1 mice = test: as above; format: in vivo; conditions: for Fold less toxic than PQ: mice, i.v.; for LD50 / Maximum tolerated dose (MTD): single i.v., mg PQ diphosphate equivalent/kg; for Maximum tolerated dose (MTD): weight loss not exceeding 5% during 5 days
Protocol: as §1, §2, §3, §4, §5

Plasmodium berghei [2] = test: Causal prophylactic activity on OF1 mice infected with Plasmodium berghei; format: in vivo, P. berghei (ANKA), in Swiss OF1 mice; conditions: for ED50 / ED100 / minimal effective dose: Plasmodium berghei, iv, 3 h; for ED50 / ED100 / minimal effective dose / CPD50, causal prophylactic dose curing 50% of the infected and treated animals / ED100, totally curative dose: single i.v. three hours after sporozoites, mg PQ diphosphate equivalent/kg; for ED50: read-out: CPD50, causal prophylactic dose curing 50% of the infected and treated animals; for ED100: read-out: ED100, totally curative dose; for minimal effective dose: read-out: Minimal effective dose (MED); for Activity relative to PQ, fold as active: model of malaria in mice; for CPD50, fold lower than for PQ: mouse, in vivo; for PQ index: ratio CPD50 of PQ/CPD50 of the compound
Protocol: Primaquine and its derivatives are tested in the model of malaria in rodents employing the infection of mice with Plasmodium berghei, the sporozoites originating from infected Anopheles stephensi mosquitoes. This model, developed by Most H., Herman R. & Schoenfeld C. (1967), Am. J. Trop. med. Hyg. 16, 572-575, enables the casual prophylatic (tissue schizonticidal) activity of new therapeutic compounds to be determined.
The procedure used is that derived from Most H. & Montuori W.A. (1975), Am. J. Trop. Med. Hyg. 24, 179-189. It involves the system P. berghei (ANKA)/Anopheles stephensi/Swiss OF1 mice. The ANKA strain of P. b. berghei is maintained cyclically on Anopheles stephensi. The Swiss OF1 strain mouse is especially sensitive to P. b. berghei, which produces an invariably fatal infection.
The legs, wings and abdomen are removed from female mosquitoes (80 to 100 individuals per preparation) and the latter are then homogenized at 4° C. in MEM medium (GIBCO) containing 10% of fetal calf serum using a glass Potter. The sporozoite suspension is then purified from the mosquito debris by two successive centrifugations (2 min at 50 g and 5 min at 200 g) and the collected supernatant is stored at 4° C. After counting in a Petroff-Hausser chamber, the number of parasites is adjusted by dilution with the same cold medium to a density of 2×10^5 sporozoites/ml.
The causal prophylactic activity of the compounds, that is to say the dose enabling 50% of the infected animals to be cured (CPD50) is obtained by analysis of the logits of the response (expressed as a % LTS) as a function of the dose (mg PQ/kg).
A volume of 0.5 ml of the suspension containing 10^5 sporozoites is injected i.v. into female Swiss OF1 mice weighing 20 to 25 g, used for the therapeutic tests. 1.2. Chemotherapeutic treatments
Groups of 20 to 25 mice, infected as described above, are treated with a single intravenous injection of primaquine diphosphate (PQ) or of its two derivatives in hydrochloride form, three hours after inoculation of the sporozoites. The volume injected is adjusted according to the weight of the mouse, on the basis of 0.25 ml for a weight of 25 g. The compounds are diluted in phosphatebuffered saline (PBS), pH 7.0, and the pH is adjusted to 7.0. Infected but untreated mice (5 per group), receive the buffer alone and serve to monitor the infectivity of the sporozoites.
The experimental mice are kept for a period of 50 days. The development of the parasitemia is followed by daily examination of blood smears stained for 60 min with 5% Giemsa in Sorensen buffer at pH 7.2, from day 5 up to day 15. The number of infected animals can thus be determined.
(§6) The animals infected using P. berchei sporozoites are treated three hours later with a single i.v. injection of the compounds. This test enables the casual prophylactic activity of the compounds, that is the dose enabling 50% of the infected animals to be cured (CPD50), to be defined. The dose is always expressed as mg of PQ diphosphate per kg.
as §6, with “berghei” for “berchei”

Plasmodium berghei [3] = test: Therapeutic index in mice; format: in vivo, P. berghei; conditions: mice, i.v.
Excerpt: The therapeutic index is defined as the ratio of the toxicity, expressed as LD50, to the therapeutic activity, expressed as CPD50, in mice.
^b : The therapeutic index (TI) is the ratio of LD50 to […]

SMILES: COc1cc(NC(C)CCCNC(=O)[C@@H](N)CC(=O)O)c2ncccc2c1 (stereo partly drawn) [ASP-PQ, N-(α-L-aspartyl)-PQ]
- LD50 [1]: 165 mg/kg
- MTD [1]: 107 mg/kg
- Fold less toxic than PQ (female Swiss OF1 mice): at least 5 -fold
- LD50 (female Swiss OF1 mice): 165.5 (5.4) mg/kg and 165 (5.4) mg/kg
- Maximum tolerated dose (MTD) (female Swiss OF1 mice): 107.2 (14.2) mg/kg
- ED50 (Plasmodium berghei [2]): 11.6 mg/kg
- ED100 (Plasmodium berghei [2]): 31 mg/kg
- minimal effective dose (Plasmodium berghei [2]): 4.4 mg/kg
- Activity relative to PQ, fold as active (Plasmodium berghei [2]): 1.6 -fold
- CPD50, fold lower than for PQ (Plasmodium berghei [2]): 1.6 -fold
- PQ index (Plasmodium berghei [2]): 1.62
- CPD50, causal prophylactic dose curing 50% of the infected and treated animals (Plasmodium berghei [2]): 11.6 (0.9) mg/kg
- ED100, totally curative dose (Plasmodium berghei [2]): 31.1 (9.2) mg/kg
- Therapeutic index, fold higher than that of PQ (Plasmodium berghei [3]): at least 8 -fold

SMILES: COc1cc(NC(C)CCCNC(=O)C[C@H](N)C(=O)O)c2ncccc2c1 (stereo partly drawn) [βASP-PQ, N-(β-L-aspartyl)-PQ]
- LD50 [1]: 164 mg/kg
- MTD [1]: 109 mg/kg
- Fold less toxic than PQ (female Swiss OF1 mice): at least 5 -fold
- LD50 (female Swiss OF1 mice): 164.4 (6.2) mg/kg and 164 (6.2) mg/kg
- Maximum tolerated dose (MTD) (female Swiss OF1 mice): 109.1 (13.1) mg/kg
- ED50 (Plasmodium berghei [2]): 11.2 mg/kg
- ED100 (Plasmodium berghei [2]): 31 mg/kg
- minimal effective dose (Plasmodium berghei [2]): 4.1 mg/kg
- Activity relative to PQ, fold as active (Plasmodium berghei [2]): at least 1.6 -fold
- CPD50, fold lower than for PQ (Plasmodium berghei [2]): 1.6 -fold
- PQ index (Plasmodium berghei [2]): 1.68
- CPD50, causal prophylactic dose curing 50% of the infected and treated animals (Plasmodium berghei [2]): 11.2 (0.7) mg/kg
- ED100, totally curative dose (Plasmodium berghei [2]): 30.6 (5.7) mg/kg
- Therapeutic index, fold higher than that of PQ (Plasmodium berghei [3]): 8 -fold
